From patent US20110230430A1, “SAPONIN EXTRACT FROM SAPONARIA SPP. AND USES THEREOF” (NATIONAL RESEARCH COUNCIL OF CANADA, priority 2008, published 2011)

Tests used:
[1] = tested on: MDA-MB-231 (breast cancer) cells; assay: Hoechst 33342 staining of MDA-MB-231 cells; assay type: cell-based, human; conditions: 7 μM PC1448, 24 hours
Text: Apoptosis can also be measured by Hoechst 33342 Staining. Cells undergoing apoptosis show several characteristic morphological changes. These changes include cell shrinkage and rounding, and the formation of cytoplasmic blebs on the cell surface. Nuclear material condenses along the edge of the nucleus followed by complete condensation and nuclear fragmentation (Hacker, G., 2000). Apoptotic cells eventually break up into membrane bound vesicles, which are known as apoptotic bodies. Hoechst 33342 is a fluorescent DNA-binding dye that allows visualization of chromatin distribution within a cell. Apoptotic nuclei have highly condensed chromatin, often in crescent shapes around the periphery of the nucleus.
A further indication of apoptotic activity, in addition to the assays described above, can be derived from observations of changes in cell architecture evident after induction of apoptosis. Hoechst 33342 is a fluorescent DNA-binding dye that allows visualization of chromatin distribution within a cell.
Cells undergoing apoptosis show several characteristic morphological changes. These changes include cell shrinkage and rounding, and the formation of cytoplasmic blebs on the cell surface. Nuclear material condenses along the edge of the nucleus followed by complete condensation and nuclear fragmentation (Hacker, G., 2000). […]

HT-29 cancer cells = assay: Dual Sensor: MitoCasp Assay in HT-29 colon cancer cells; assay type: cell-based, human; conditions: HT-29 cells, 2.5 μM, 5.0 μM and 10 μM, 23 hours
Text: Techniques to assay enzymatic and signaling processes involved in apoptosis have been developed as standard protocols. One example of an early step in apoptosis, is the release of cytochrome C from mitochondria and the activation of caspase-3. Induction of the caspases (a series of cytosolic proteases) is one of the most consistently observed features of apoptosis. Caspases are a family of proteolytic enzymes that transmit the apoptotic signal using a proteolytic cascade. […] Caspases 3 and 7 are effector caspases, central to the caspase cascade pathways. In particular, caspase-3 plays a central role in the process. When caspases are activated, they cleave target proteins; one of the most important of these is poly-(ADP-ribose) polymerase (PARP), which is a protein located in the nucleus. Therefore, assays detecting release of cytochrome C, detecting caspase-3 activity and detecting PARP degradation are effective determinants of apoptosis. The loss of mitochondrial membrane potential is known to occur during apoptosis. […] Collapse of the mitochondrial membrane potential during apoptosis prevents the dye from accumulating in the mitochondria resulting in a decrease in fluorescent intensity that can be detected with flow cytometry. […] In this assay, caspase 3/7 activity is detected using a cell permeable carboxyfluorescein labeled caspase inhibitor, which binds covalently to active caspases 3 and 7. Cells that contain bound inhibitor are detected by an increase in fluorescence when samples are analyzed by flow cytometry.
Following PC1448 treatment, adherent and non-adherent cells were harvested and washed with cold PBS. […] Samples were analyzed by flow cytometry measuring the fluorescence emissions from 515 nm to 530 nm for caspase detection, and 574 nm to 600 nm for mitochondrial membrane potential detection. […]
HT-29 cancer cells were treated with 2.5 μM, 5.0 μM and 10 μM of PC1526 or PC1448 for 23 hours, or with 2.5 μM, 5.0 μM and 10 μM PC1422 for 24 hours and assessed using the Dual Sensor: MitoCasp™ Assay. […]

Substance: Segetoside H [PC1448]
- Nuclear morphology after Hoechst 33342 staining (in words, FIG. 4) [1]: nuclear changes characteristic of apoptotic cells
- Caspase 3/7 activity compared to untreated cells / induction of apoptosis (in words, FIG. 5) (HT-29 cancer cells): increase in caspase 3/7 activity
